Test results published in patent EP0726261A1, “Herbidical 1,2,4 thiadiazoles” (American Cyanamid Company, priority 1995, dated 1996).

Tests used:
Assay type in all cases: in vivo
Triticum aestivum [1] = test: Preemergence herbicidal activity (Example 67); design: herbicide rating, TRZAW: scale not given here; settings: pre, 800 g/ha; for herbicide rating, TRZAW: rated about 1-3 weeks after treatment
Description: (§1) Herbicidal evaluation of compounds of the invention is conducted on the following plant species:
(§2) The soil is a prepared horticultural substrate containing 30% peat, 20% volcanic clay, 30% bark residues and 20% polyamide/styromull in a 1:3 mixture with loamy sand. Test solutions are prepared by dissolving the test compound in acetone containing 0.5% of an alkylphenol/ethylene oxide condensate under the trademark, TRITON® X-155, and diluting with water as needed. The test solutions are applied as a spray to the 3-6 week old seedling plants at dose rates corresponding to 800g/ha in a volume equivalent to 400 L/ha. A pneumatic spraying device employing a Teejet nozzle SS 8002E operating at 3 bar is used for a predetermined time. After spraying, the treated plants are placed on greenhouse benches and cared for in a manner commensurate with conventional greenhouse practice. After 10-21 days, the treated plants are evaluated and rated according to the rating system provided below.
(§3) The soil surface is then sprayed with test solutions as described in the postemergence evaluation hereinabove. After spraying, the treated cups are placed on greenhouse benches and cared for in the manner commensurate with conventional greenhouse practice. About 1-3 weeks after treatment the cups are evaluated and rated according to the rating system provided hereinabove.

Hordeum vulgare [2] = test: Preemergence herbicidal activity (Example 67); design: herbicide rating, HORVW: scale not given here; settings: pre, 800 g/ha; for herbicide rating, HORVW: rated about 1-3 weeks after treatment
Description: as §1, §2, §3

Alopecurus myosuroides [3] = test: Preemergence herbicidal activity (Example 67); design: herbicide rating, ALOMY: scale not given here; settings: pre, 800 g/ha; for herbicide rating, ALOMY: rated about 1-3 weeks after treatment
Description: as §1, §2, §3

Setaria viridis [4] = test: Preemergence herbicidal activity (Example 67); design: herbicide rating, SETVI: scale not given here; settings: pre, 800 g/ha; for herbicide rating, SETVI: rated about 1-3 weeks after treatment
Description: as §1, §2, §3

Abutilon theophrasti [5] = test: Preemergence herbicidal activity (Example 67); settings: pre, 800 g/ha; for herbicide rating, ABUTH: rated about 1-3 weeks after treatment
Description: as §1, §2, §3

Amaranthus retroflexus [6] = test: Preemergence herbicidal activity (Example 67); settings: pre, 800 g/ha; for herbicide rating, AMARE: rated about 1-3 weeks after treatment
Description: as §1, §2, §3

Chenopodium album [7] = test: Preemergence herbicidal activity (Example 67); settings: pre, 800 g/ha; for herbicide rating, CHEAL: rated about 1-3 weeks after treatment
Description: as §1, §2, §3

Galium aparine [8] = test: Preemergence herbicidal activity (Example 67); settings: pre, 800 g/ha; for herbicide rating, GALAP: rated about 1-3 weeks after treatment
Description: as §1, §2, §3

Helianthus annuus [9] = test: Preemergence herbicidal activity (Example 67); settings: pre, 800 g/ha; for herbicide rating, HELAN: rated about 1-3 weeks after treatment
Description: as §1, §2, §3

Ipomoea hederacea [10] = test: Preemergence herbicidal activity (Example 67); settings: pre, 800 g/ha; for herbicide rating, IPOHE: rated about 1-3 weeks after treatment
Description: as §1, §2, §3

Veronica persica [11] = test: Preemergence herbicidal activity (Example 67); settings: pre, 800 g/ha; for herbicide rating, VERPE: rated about 1-3 weeks after treatment
Description: as §1, §2, §3

Zea mays [12] = test: Preemergence herbicidal activity (Example 67); settings: pre, 800 g/ha; for herbicide rating, ZEAMX: rated about 1-3 weeks after treatment
Description: as §1, §2, §3

Abutilon theophrasti [13] = test: Postemergence herbicidal activity (Example 67); settings: pos, 800 g/ha; for herbicide rating, ABUTH: rated after 10-21 days
Description: as §1, §2

Alopecurus myosuroides [14] = test: Postemergence herbicidal activity (Example 67); settings: pos, 800 g/ha; for herbicide rating, ALOMY: rated after 10-21 days
Description: as §1, §2

Amaranthus retroflexus [15] = test: Postemergence herbicidal activity (Example 67); settings: pos, 800 g/ha; for herbicide rating, AMARE: rated after 10-21 days
Description: as §1, §2

Chenopodium album [16] = test: Postemergence herbicidal activity (Example 67); settings: pos, 800 g/ha; for herbicide rating, CHEAL: rated after 10-21 days
Description: as §1, §2

Galium aparine [17] = test: Postemergence herbicidal activity (Example 67); settings: pos, 800 g/ha; for herbicide rating, GALAP: rated after 10-21 days
Description: as §1, §2

Helianthus annuus [18] = test: Postemergence herbicidal activity (Example 67); settings: pos, 800 g/ha; for herbicide rating, HELAN: rated after 10-21 days
Description: as §1, §2

Hordeum vulgare [19] = test: Postemergence herbicidal activity (Example 67); settings: pos, 800 g/ha; for herbicide rating, HORVW: rated after 10-21 days
Description: as §1, §2

Ipomoea hederacea [20] = test: Postemergence herbicidal activity (Example 67); settings: pos, 800 g/ha; for herbicide rating, IPOHE: rated after 10-21 days
Description: as §1, §2

Setaria viridis [21] = test: Postemergence herbicidal activity (Example 67); settings: pos, 800 g/ha; for herbicide rating, SETVI: rated after 10-21 days
Description: as §1, §2

Triticum aestivum [22] = test: Postemergence herbicidal activity (Example 67); settings: pos, 800 g/ha; for herbicide rating, TRZAW: rated after 10-21 days
Description: as §1, §2

Veronica persica [23] = test: Postemergence herbicidal activity (Example 67); settings: pos, 800 g/ha; for herbicide rating, VERPE: rated after 10-21 days
Description: as §1, §2

Zea mays [24] = test: Postemergence herbicidal activity (Example 67); settings: pos, 800 g/ha; for herbicide rating, ZEAMX: rated after 10-21 days
Description: as §1, §2

C[C@H](NC(=O)c1nsc(-c2ccccc2F)n1)c1ccccc1 [Example 56, (S)-5-(2-Fluorophenyl)-[1,2,4]thiadiazole-3-carboxylic acid, 1-(phenylethyl)amide]
TRZ AW rating (Triticum aestivum [1]): 0
HOR VW rating (Hordeum vulgare [2]): 0
ALO MY rating (Alopecurus myosuroides [3]): 0
SET VI rating (Setaria viridis [4]): 2 (6-15%)
ABU TH rating (Abutilon theophrasti [5]): 2 (6-15%)
AMA RE rating (Amaranthus retroflexus [6]): 5 (45-64%)
CHE AL rating (Chenopodium album [7]): 2 (6-15%)
GAL AP rating (Galium aparine [8]): 0
HEL AN rating (Helianthus annuus [9]): 0
IPO HE rating (Ipomoea hederacea [10]): 3 (16-29%)
VER PE rating (Veronica persica [11]): 4 (30-44%)
ZEA MX rating (Zea mays [12]): 0
ABU TH rating (Abutilon theophrasti [13]): 9 (100% effect)
ALO MY rating (Alopecurus myosuroides [14]): 5 (45-64%)
AMA RE rating (Amaranthus retroflexus [15]): 7 (80-90%)
CHE AL rating (Chenopodium album [16]): 4 (30-44%)
GAL AP rating (Galium aparine [17]): 6 (65-79%)
HEL AN rating (Helianthus annuus [18]): 8 (91-99%)
HOR VW rating (Hordeum vulgare [19]): 5 (45-64%)
IPO HE rating (Ipomoea hederacea [20]): 8 (91-99%)
SET VI rating (Setaria viridis [21]): 8 (91-99%)
TRZ AW rating (Triticum aestivum [22]): 5 (45-64%)
VER PE rating (Veronica persica [23]): 7 (80-90%)
ZEA MX rating (Zea mays [24]): 4 (30-44%)

COc1ccc(-c2nsc(C(=O)NC(C)c3cccs3)n2)cc1 (racemic) [Example 35]
herbicide rating, TRZAW (Triticum aestivum [1]): 0
herbicide rating, HORVW (Hordeum vulgare [2]): 0
herbicide rating, ALOMY (Alopecurus myosuroides [3]): 0
herbicide rating, SETVI (Setaria viridis [4]): 0
herbicide rating, ABUTH (Abutilon theophrasti [5]): 0
herbicide rating, AMARE (Amaranthus retroflexus [6]): 0
herbicide rating, CHEAL (Chenopodium album [7]): 5 (45-64%)
herbicide rating, GALAP (Galium aparine [8]): 4 (30-44%)
herbicide rating, HELAN (Helianthus annuus [9]): 3 (16-29%)
herbicide rating, IPOHE (Ipomoea hederacea [10]): 0
herbicide rating, VERPE (Veronica persica [11]): 4 (30-44%)
herbicide rating, ZEAMX (Zea mays [12]): 0
herbicide rating, ABUTH (Abutilon theophrasti [13]): 4 (30-44%)
herbicide rating, ALOMY (Alopecurus myosuroides [14]): 3 (16-29%)
herbicide rating, AMARE (Amaranthus retroflexus [15]): 3 (16-29%)
herbicide rating, CHEAL (Chenopodium album [16]): 5 (45-64%)
herbicide rating, GALAP (Galium aparine [17]): 4 (30-44%)
herbicide rating, HELAN (Helianthus annuus [18]): 5 (45-64%)
herbicide rating, HORVW (Hordeum vulgare [19]): 3 (16-29%)
herbicide rating, IPOHE (Ipomoea hederacea [20]): 4 (30-44%)
herbicide rating, SETVI (Setaria viridis [21]): 8 (91-99%)
herbicide rating, TRZAW (Triticum aestivum [22]): 3 (16-29%)
herbicide rating, VERPE (Veronica persica [23]): 2 (6-15%)
herbicide rating, ZEAMX (Zea mays [24]): 3 (16-29%)

C[C@H](NC(=O)c1nsc(-c2cccc(C(F)(F)F)c2)n1)c1ccccc1 [Example 42]
TRZ AW rating (Triticum aestivum [1]): 0
HOR VW rating (Hordeum vulgare [2]): 0
ALO MY rating (Alopecurus myosuroides [3]): 0
SET VI rating (Setaria viridis [4]): 0
ABU TH rating (Abutilon theophrasti [5]): 0
AMA RE rating (Amaranthus retroflexus [6]): 0
CHE AL rating (Chenopodium album [7]): 5 (45-64%)
GAL AP rating (Galium aparine [8]): 2 (6-15%)
HEL AN rating (Helianthus annuus [9]): 0
IPO HE rating (Ipomoea hederacea [10]): 0
VER PE rating (Veronica persica [11]): 2 (6-15%)
ZEA MX rating (Zea mays [12]): 0
ABU TH rating (Abutilon theophrasti [13]): 0
ALO MY rating (Alopecurus myosuroides [14]): 1 (1-5%)
AMA RE rating (Amaranthus retroflexus [15]): 0
CHE AL rating (Chenopodium album [16]): 3 (16-29%)
GAL AP rating (Galium aparine [17]): 0
HEL AN rating (Helianthus annuus [18]): 3 (16-29%)
HOR VW rating (Hordeum vulgare [19]): 2 (6-15%)
IPO HE rating (Ipomoea hederacea [20]): 2 (6-15%)
SET VI rating (Setaria viridis [21]): 5 (45-64%)
TRZ AW rating (Triticum aestivum [22]): 2 (6-15%)
VER PE rating (Veronica persica [23]): 0
ZEA MX rating (Zea mays [24]): 0

COc1ccc(-c2nsc(C(=O)NC(C)c3ccc(C)s3)n2)cc1 (racemic) [Example 37]
herbicide rating, TRZAW (Triticum aestivum [1]): 0
herbicide rating, HORVW (Hordeum vulgare [2]): 0
herbicide rating, ALOMY (Alopecurus myosuroides [3]): 0
herbicide rating, SETVI (Setaria viridis [4]): 0
herbicide rating, ABUTH (Abutilon theophrasti [5]): 0
herbicide rating, AMARE (Amaranthus retroflexus [6]): 0
herbicide rating, CHEAL (Chenopodium album [7]): 6 (65-79%)
herbicide rating, GALAP (Galium aparine [8]): 0
herbicide rating, HELAN (Helianthus annuus [9]): 0
herbicide rating, IPOHE (Ipomoea hederacea [10]): 0
herbicide rating, VERPE (Veronica persica [11]): 0
herbicide rating, ZEAMX (Zea mays [12]): 0
herbicide rating, ABUTH (Abutilon theophrasti [13]): 0
herbicide rating, ALOMY (Alopecurus myosuroides [14]): 2 (6-15%)
herbicide rating, AMARE (Amaranthus retroflexus [15]): 0
herbicide rating, CHEAL (Chenopodium album [16]): 3 (16-29%)
herbicide rating, GALAP (Galium aparine [17]): 0
herbicide rating, HELAN (Helianthus annuus [18]): 0
herbicide rating, HORVW (Hordeum vulgare [19]): 2 (6-15%)
herbicide rating, IPOHE (Ipomoea hederacea [20]): 1 (1-5%)
herbicide rating, SETVI (Setaria viridis [21]): 4 (30-44%)
herbicide rating, TRZAW (Triticum aestivum [22]): 3 (16-29%)
herbicide rating, VERPE (Veronica persica [23]): 0
herbicide rating, ZEAMX (Zea mays [24]): 0
